Measured values taken from patent US20190105367A1, “ANTIMICROBIAL 4-OXOQUINOLIZINES” (Emergent Product Development Gaithersburg Inc., priority 2011, published 2019).
Like-named read-outs stand apart in the source and are kept apart here.

Experiments:
[1] = tested on: Acinetobacter sp. (H064200250); experiment: MIC without and with sub-inhibitory polymyxin B (Example 4); format: cell-based
A. baumannii A14 [2] = experiment: as above; format: cell-based, Acinetobacter baumannii; details: A. baumannii A14, 2nd experiment
A. baumannii ATCC 19606 = experiment: as above; format: cell-based, Acinetobacter baumannii
A. baumannii A387 [3] = experiment: Preliminary MBC without and with sub-inhibitory polymyxin B (Example 4); format: cell-based, Acinetobacter baumannii; details: for MBC: 2nd experiment
A. baumannii J2 [4] = experiment: as above; format: cell-based, Acinetobacter baumannii; details: A. baumannii J2, preliminary MBC; for MBC: 2nd experiment
[5] = tested on: strains of A. baumannii and one strain of Acinetobacter sp.; experiment: MIC with sub-inhibitory concentrations (0.25x MIC) of polymyxin B, panel of Acinetobacter strains (Example 4); format: cell-based
A. baumannii NCTC 13301 [6] = experiment: MIC without and with sub-inhibitory polymyxin B (Example 4); format: cell-based, Acinetobacter baumannii; details: A. baumannii NCTC 13301, 1st experiment
A. baumannii A401 [7] = experiment: Preliminary MBC without and with sub-inhibitory polymyxin B (Example 4); format: cell-based, Acinetobacter baumannii; details: for MBC: 2nd experiment
A. baumannii A14 [8] = experiment: MIC without and with sub-inhibitory polymyxin B (Example 4); format: cell-based, Acinetobacter baumannii; details: 1st experiment
A. baumannii J2 [9] = experiment: as above; format: cell-based, Acinetobacter baumannii; details: A. baumannii J2
A. baumannii A390 [10] = experiment: as above; format: cell-based, Acinetobacter baumannii; details: A. baumannii A390
A. baumannii A489 = experiment: as above; format: cell-based, Acinetobacter baumannii; details: A. baumannii A489
A. baumannii A472 [11] = experiment: Preliminary MBC without and with sub-inhibitory polymyxin B (Example 4); format: cell-based, Acinetobacter baumannii; details: A. baumannii A472, preliminary MBC; for MBC: 2nd experiment
A. baumannii A329 [12] = experiment: MIC without and with sub-inhibitory polymyxin B (Example 4); format: cell-based, Acinetobacter baumannii; details: A. baumannii A329
A. baumannii A472 [13] = experiment: as above; format: cell-based, Acinetobacter baumannii; details: A. baumannii A472; for MIC: 2nd experiment
A. baumannii A401 [14] = experiment: as above; format: cell-based, Acinetobacter baumannii; details: A baumannii A 401; for MIC: 2nd experiment
A. baumannii NCTC 13301 [15] = experiment: as above; format: cell-based, Acinetobacter baumannii; details: A. baumannii NCTC 13301, 2nd experiment
A. baumannii A329 [16] = experiment: Preliminary MBC without and with sub-inhibitory polymyxin B (Example 4); format: cell-based, Acinetobacter baumannii; details: for MBC: 2nd experiment
A. baumannii A390 [17] = experiment: as above; format: cell-based, Acinetobacter baumannii; details: for MBC: 2nd experiment
Procedure, shortened: (§1)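 Incubation 18-20 h, 37° C. MBC = lowest conc. with ~90% fewer colonies than positive control (single/no colonies).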

A. baumannii NCTC 13301 [18] = experiment: as above; format: cell-based, Acinetobacter baumannii; details: A. baumannii NCTC 13301, preliminary MBC; for MBC: 2nd experiment
Procedure, shortened: as §1

A. baumannii A473 [19] = experiment: as above; format: cell-based, Acinetobacter baumannii; details: for MBC: 2nd experiment
Procedure, shortened: as §1

A. baumannii A14 [20] = experiment: as above; format: cell-based, Acinetobacter baumannii; details: 2nd experiment
Procedure, shortened: as §1

A. baumannii A473 [21] = experiment: MIC without and with sub-inhibitory polymyxin B (Example 4); format: cell-based, Acinetobacter baumannii; details: A. baumannii A473
A. baumannii A387 [22] = experiment: as above; format: cell-based, Acinetobacter baumannii; details: A. baumannii A387
[23] = Acinetobacter spp. H064200250 (OXA51), +[…] PB, 2nd experiment
[24] = A. baumannii ATCC 19606, +0.06 μg/ml PB, 2nd experiment
[25] = +[…] polymyxin B, 1st experiment
[26] = without polymyxin B, 1st experiment
[27] = ratio, PB 0.06 μg/ml, 1st experiment

8-[(3S)-3-aminocyclopentyl]-1- cyclopropyl-7-fluoro-9-methyl- 4-oxo-quinolizine-3-carboxylic acid [Compound 10, reference compound]
1 mg/L: MIC +[…] PB [1] | MIC [1, 23] | MIC ([1]; Acinetobacter spp. H064200250 (OXA51), without PB, 2nd experiment) | MBC +[…] PB (A. baumannii J2 [4]; [25]) | MBC without PB (A. baumannii J2 [4]; [26]) | MBC (A. baumannii A401 [7]; A baumannii A 401, +0.06 μg/ml PB) | MBC (A. baumannii A401 [7]; A baumannii A 401, without PB) | MBC without PB (A. baumannii A401 [7]; A baumannii A 401, without polymyxin B, 1st experiment) | MIC +[…] PB (A. baumannii J2 [9]; [25]) | MIC (A. baumannii A390 [10]; without PB, 2nd experiment) | MIC without PB (A. baumannii A390 [10]; [26]) | MIC (A. baumannii A489; without PB, 2nd experiment) | MIC without PB (A. baumannii A489; [26]) | MBC (A. baumannii A472 [11]; without PB) | MBC without PB (A. baumannii A472 [11]; [26]) | MIC (A. baumannii A329 [12]; +0.06 μg/ml PB, 2nd experiment) | MIC (A. baumannii A472 [13]; without PB) | MIC without PB (A. baumannii A472 [13]; [26]) | MIC (A. baumannii A401 [14]; +0.06 μg/ml PB) | MIC (A. baumannii A401 [14]; without PB) | MBC (A. baumannii A390 [17]; A. baumannii A390, without PB) | MBC without PB (A. baumannii A390 [17]; A. baumannii A390, without polymyxin B, 1st experiment) | MBC (A. baumannii A473 [19]; A. baumannii A473, without PB) | MBC (A. baumannii A14 [20]; A. baumannii A14, +0.06 μg/ml PB) | MIC without PB (A. baumannii A473 [21]; [26])
1-8: Range ratios MIC without PB/MIC with PB Oct. 1, 2008 n = 8 ([5]; 1st experiment) | Range ratios MIC without PB/MIC with PB Oct. 14, 2008 n = 11 ([5]; 2nd experiment)
0.125 mg/L: MIC (A. baumannii ATCC 19606; A. baumannii ATCC 19606, without PB, 2nd experiment)
8.00 mg/L: MIC +0.06 μg/ml PB (A. baumannii A14 [8]; +0.06 μg/ml polymyxin B)
0.03 mg/L: MIC +0.06 μg/ml PB (A. baumannii ATCC 19606; A. baumannii ATCC 19606, +0.06 μg/ml polymyxin B, 1st experiment)
1.00 mg/L: MIC +[…] PB (A. baumannii NCTC 13301 [6]; +[…] polymyxin B) | MBC +0.06 μg/ml PB (A. baumannii A401 [7]; A baumannii A 401, +0.06 μg/ml polymyxin B, 1st experiment) | MIC +[…] PB (A. baumannii A489; [25]) | MIC +0.06 μg/ml PB (A. baumannii A401 [14]; +0.06 μg/ml polymyxin B, 1st experiment) | MBC +[…] PB (A. baumannii NCTC 13301 [18]; [25])
2: MIC without PB/MIC + PB [1] | MIC without PB/MIC + PB (A. baumannii ATCC 19606; [24]) | MIC without PB/MIC + PB (A. baumannii J2 [9]; ratio, PB […], 1st experiment) | MIC without PB/MIC + PB (A. baumannii A390 [10]; +0.06 μg/ml PB, 2nd experiment) | MIC without PB/MIC + PB (A. baumannii A489; +[…] PB, 2nd experiment) | MIC without PB/MIC + PB (A. baumannii A329 [12]; +0.06 μg/ml PB, 2nd experiment) | MIC without PB/MIC + PB (A. baumannii A472 [13]; ratio, PB […], 1st experiment) | MIC without PB/MIC + PB (A. baumannii A401 [14]; [27])
0: MIC without PB/MIC + PB (A. baumannii A473 [21]; +0.06 μg/ml PB, 2nd experiment)
2 mg/L: MIC without PB ([1]; Acinetobacter spp. H064200250, without polymyxin B, 1st experiment) | MIC (A. baumannii A14 [2]; +0.06 μg/ml PB) | MIC (A. baumannii A14 [2]; without PB) | MBC (A. baumannii J2 [4]; without PB) | MIC (A. baumannii J2 [9]; without PB, 2nd experiment) | MIC without PB (A. baumannii J2 [9]; [26]) | MIC read with alamar blue (A. baumannii A329 [12]; +0.06 μg/ml PB, value in parentheses, 2nd experiment) | MIC (A. baumannii A329 [12]; without PB, 2nd experiment) | MIC without PB (A. baumannii A401 [14]; [26]) | MIC (A. baumannii NCTC 13301 [15]; without PB) | MBC (A. baumannii A329 [16]; A. baumannii A329, +0.06 μg/ml PB) | MBC (A. baumannii A329 [16]; A. baumannii A329, without PB) | MBC without PB (A. baumannii A329 [16]; A. baumannii A329, without polymyxin B, 1st experiment) | MBC (A. baumannii NCTC 13301 [18]; without PB) | MBC without PB (A. baumannii NCTC 13301 [18]; [26]) | MBC (A. baumannii A14 [20]; A. baumannii A14, without PB)
256: MIC without PB/MIC + PB (A. baumannii ATCC 19606; A. baumannii ATCC 19606, ratio, PB 0.06 μg/ml, 1st experiment)
less potentiated: Change of activity (MIC) in presence of polymyxin B compared to without polymyxin B [5]
8 mg/L: MIC without PB (A. baumannii NCTC 13301 [6]; without polymyxin B) | MIC without PB (A. baumannii A14 [8]; without polymyxin B) | MIC without PB (A. baumannii A329 [12]; [26])
4: MIC without PB/MIC + PB (A. baumannii NCTC 13301 [15]; +[…] PB)
0.5 mg/L: MBC (A. baumannii A387 [3]; A. baumannii A387, +0.06 μg/ml PB) | MBC (A. baumannii A387 [3]; A. baumannii A387, without PB) | MBC without PB (A. baumannii A387 [3]; A. baumannii A387, without polymyxin B, 1st experiment) | MIC (A. baumannii A390 [10]; +0.06 μg/ml PB, 2nd experiment) | MIC (A. baumannii A489; +[…] PB, 2nd experiment) | MBC (A. baumannii A472 [11]; +[…] PB) | MIC (A. baumannii A472 [13]; +[…] PB) | MIC +[…] PB (A. baumannii A472 [13]; [25]) | MIC (A. baumannii NCTC 13301 [15]; +[…] PB) | MBC (A. baumannii A390 [17]; A. baumannii A390, +0.06 μg/ml PB) | MBC (A. baumannii NCTC 13301 [18]; +[…] PB) | MBC (A. baumannii A473 [19]; A. baumannii A473, +0.06 μg/ml PB) | MBC without PB (A. baumannii A473 [19]; A. baumannii A473, without polymyxin B, 1st experiment) | MIC (A. baumannii A473 [21]; +0.06 μg/ml PB, 2nd experiment) | MIC (A. baumannii A387 [22]; +0.06 μg/ml PB, 2nd experiment) | MIC (A. baumannii A387 [22]; without PB, 2nd experiment) | MIC without PB (A. baumannii A387 [22]; [26])
0.25 mg/L: MBC +0.06 μg/ml PB (A. baumannii A387 [3]; A. baumannii A387, +0.06 μg/ml polymyxin B, 1st experiment) | MBC (A. baumannii J2 [4]; +[…] PB) | MIC (A. baumannii J2 [9]; +[…] PB, 2nd experiment) | MBC +[…] PB (A. baumannii A472 [11]; [25])
0.06 mg/L: MIC (A. baumannii ATCC 19606; [24]) | MIC (A. baumannii ATCC 19606; A. baumannii ATCC 19606, without PB, value in parentheses marked *, mark not explained, 2nd experiment)
8: MIC without PB/MIC + PB (A. baumannii NCTC 13301 [6]; ratio, PB […]) | MIC without PB/MIC + PB (A. baumannii J2 [9]; +[…] PB, 2nd experiment)
potent activities: Activity against the A. baumannii ATCC 19606 strain (A. baumannii ATCC 19606; with and without sub-inhibitory concentrations of polymyxin B)
1: MIC without PB/MIC + PB [1, 23] | MIC without PB/MIC + PB (A. baumannii A14 [2]; +0.06 μg/ml PB) | MIC without PB/MIC + PB (A. baumannii A14 [8]; ratio, PB 0.06 μg/ml) | MIC without PB/MIC + PB (A. baumannii A489; ratio, PB […], 1st experiment) | MIC without PB/MIC + PB (A. baumannii A387 [22]; +0.06 μg/ml PB, 2nd experiment) | MIC without PB/MIC + PB (A. baumannii A387 [22]; [27])
0.5 to 8 mg/L: MIC range with PB (0.25x MIC) Oct. 1, 2008 n = 8 ([5]; 1st experiment, […] polymyxin B, ATCC 19606, A329, A390 and A473 not taken)
0.25 to 2 mg/L: MIC range with PB (0.25x MIC) Oct. 14, 2008 n = 11 ([5]; 2nd experiment, 0.06 μg/ml polymyxin B, all strains except the ATCC strain)
